These are literature values, as cited in patent US20060168671A1, “Injection of caprine sperm factor (cSF), phospholipase C zeta (PLCzeta) and adenophostin A as alternative methods of activation during nuclear transfer in the caprine species” (priority 2005, published 2006).

In one data set the test system is MII mouse eggs. Particulars: Jellerette et al., 2000.
In the next data set the test system is IP3R. Particulars: relative to IP3; Takahashi et al., 1994.

As for `Nc1ncnc2c1ncn2[C@@H]1O[C@H](CO)[C@@H](O[C@H]2O[C@H](CO)[C@@H](OP(=O)(O)O)[C@H](OP(=O)(O)O)[C@H]2O)[C@H]1OP(=O)(O)O` [Adenophostin A], in the data set on MII mouse eggs, the “[Ca2+]i oscillations” value is reported as “induces fertilization-like oscillations” and the activation rates entry is “high activation rates”. In the data set with IP3R, the “affinity to IP3R greater than IP3 itself” value is given as 10-100 fold.
